Species on record: Rattus norvegicus
Assay: Open TG-GATES - Regimen: Single
Format: toxicity, organism-based, Sprague-Dawley
Design: regimen Single, gender Male, age 6 weeks
Settings: in vivo, po, 0 mg/kg, route gavage, dose level Control; for APTT / Bas / Eos / Fbg / Hb / Ht / Lym / MCH / MCHC / MCV / Mono / Neu / PT / Plat / RBC / Ret / WBC: tissue Blood; for KIDNEY_L / KIDNEY_R / KIDNEY_TOTAL: tissue Kidney; for LIVER: tissue Liver; for A/G / ALP / ALT / AST / BUN / CRE / Ca / Cl / DBIL / GLC / IP / K / LDH / Na / PL / RALB / TBIL / TC / TG / TP / gamma-GTP: tissue Plasma

CCc1oc2ccccc2c1C(=O)c1cc(Br)c(O)c(Br)c1 [BENZBROMARONE]
TERMINAL_BW (3 h): 217.1 g
APTT (3 h): 17.3 s
Bas (3 h): 0%
Eos (3 h): 1%
Fbg (3 h): 226.8 mg/dL
Hb (3 h): 13.8 g/dL
Ht (3 h): 40.9%
Lym (3 h): 76.4%
MCH (3 h): 22.2 pg
MCHC (3 h): 33.8%
MCV (3 h): 65.9 fL
Mono (3 h): 7.4%
Neu (3 h): 15.2%
PT (3 h): 11.9 s
Plat (3 h): 104.6 x10_4/uL
RBC (3 h): 621.4 x10_4/ul
Ret (3 h): 7.9%
WBC (3 h): 127.8 x10_2/uL
KIDNEY_L (3 h): 0.9 g
KIDNEY_R (3 h): 0.9 g
KIDNEY_TOTAL (3 h): 1.9 g
LIVER (3 h): 10.1 g
A/G (3 h): 2
ALP (3 h): 745.6 IU/L
ALT (3 h): 38.4 IU/L
AST (3 h): 65.4 IU/L
BUN (3 h): 12.2 mg/dL
CRE (3 h): 0.6 mg/dL
Ca (3 h): 10.8 mg/dL
Cl (3 h): 104 meq/L
DBIL (3 h): 0.046 mg/dL
GLC (3 h): 191 mg/dL
IP (3 h): 9.7 mg/dL
K (3 h): 4.8 meq/L
LDH (3 h): 81.6 IU/L
Na (3 h): 138.8 meq/L
PL (3 h): 143.6 mg/dL
RALB (3 h): 3.8 g/dL
TBIL (3 h): 0.3 mg/dL
TC (3 h): 75 mg/dL
TG (3 h): 84.2 mg/dL
TP (3 h): 5.7 g/dL
gamma-GTP (3 h): 1.8 IU/L
TERMINAL_BW (6 h): 212.5 g
APTT (6 h): 16 s
Bas (6 h): 0%
Eos (6 h): 1%
Fbg (6 h): 230.2 mg/dL
Hb (6 h): 14.1 g/dL
Ht (6 h): 41.9%
Lym (6 h): 79.8%
MCH (6 h): 21.8 pg
MCHC (6 h): 33.6%
MCV (6 h): 65 fL
Mono (6 h): 6.2%
Neu (6 h): 13.6%
PT (6 h): 12.2 s
Plat (6 h): 103.2 x10_4/uL
RBC (6 h): 645.6 x10_4/ul
Ret (6 h): 7.9%
WBC (6 h): 125.2 x10_2/uL
KIDNEY_L (6 h): 1 g
KIDNEY_R (6 h): 1 g
KIDNEY_TOTAL (6 h): 2.1 g
LIVER (6 h): 9.9 g
A/G (6 h): 2
ALP (6 h): 690.6 IU/L
ALT (6 h): 28.2 IU/L
AST (6 h): 57.4 IU/L
BUN (6 h): 10.6 mg/dL
CRE (6 h): 0.5 mg/dL
Ca (6 h): 10.5 mg/dL
Cl (6 h): 104.6 meq/L
DBIL (6 h): 0.006 mg/dL
GLC (6 h): 182.6 mg/dL
IP (6 h): 9.7 mg/dL
K (6 h): 5.2 meq/L
LDH (6 h): 82.8 IU/L
Na (6 h): 138.4 meq/L
PL (6 h): 142.2 mg/dL
RALB (6 h): 3.8 g/dL
TBIL (6 h): 0.4 mg/dL
TC (6 h): 72.4 mg/dL
TG (6 h): 69.2 mg/dL
TP (6 h): 5.7 g/dL
gamma-GTP (6 h): 1.2 IU/L
TERMINAL_BW (9 h): 208.2 g
APTT (9 h): 16.2 s
Bas (9 h): 0%
Eos (9 h): 0.8%
Fbg (9 h): 234.8 mg/dL
Hb (9 h): 13.6 g/dL
Ht (9 h): 40.6%
Lym (9 h): 74.6%
MCH (9 h): 21.6 pg
MCHC (9 h): 33.5%
MCV (9 h): 64.4 fL
Mono (9 h): 5.2%
Neu (9 h): 19.6%
PT (9 h): 12.2 s
Plat (9 h): 105.2 x10_4/uL
RBC (9 h): 631 x10_4/ul
Ret (9 h): 7.4%
WBC (9 h): 95.5 x10_2/uL
KIDNEY_L (9 h): 1 g
KIDNEY_R (9 h): 1 g
KIDNEY_TOTAL (9 h): 2 g
LIVER (9 h): 9.1 g
A/G (9 h): 1.9
ALP (9 h): 623.4 IU/L
ALT (9 h): 27 IU/L
AST (9 h): 58.8 IU/L
BUN (9 h): 11.2 mg/dL
CRE (9 h): 0.6 mg/dL
Ca (9 h): 10 mg/dL
Cl (9 h): 105.2 meq/L
DBIL (9 h): 0.008 mg/dL
GLC (9 h): 181.2 mg/dL
IP (9 h): 11 mg/dL
K (9 h): 5 meq/L
LDH (9 h): 86.8 IU/L
Na (9 h): 139.4 meq/L
PL (9 h): 126.4 mg/dL
RALB (9 h): 3.8 g/dL
TBIL (9 h): 0.3 mg/dL
TC (9 h): 71.6 mg/dL
TG (9 h): 42.8 mg/dL
TP (9 h): 5.8 g/dL
gamma-GTP (9 h): 1.2 IU/L
TERMINAL_BW (24 h): 225.6 g
APTT (24 h): 15.9 s
Bas (24 h): 0%
Eos (24 h): 1.2%
Fbg (24 h): 220.2 mg/dL
Hb (24 h): 13.9 g/dL
Ht (24 h): 41.4%
Lym (24 h): 75%
MCH (24 h): 21.4 pg
MCHC (24 h): 33.5%
MCV (24 h): 63.7 fL
Mono (24 h): 6.4%
Neu (24 h): 17.4%
PT (24 h): 11.9 s
Plat (24 h): 115 x10_4/uL
RBC (24 h): 650 x10_4/ul
Ret (24 h): 7.2%
WBC (24 h): 109 x10_2/uL
KIDNEY_L (24 h): 1 g
KIDNEY_R (24 h): 1 g
KIDNEY_TOTAL (24 h): 2 g
LIVER (24 h): 10.9 g
A/G (24 h): 2.1
ALP (24 h): 682.4 IU/L
ALT (24 h): 32.2 IU/L
AST (24 h): 61 IU/L
BUN (24 h): 16.8 mg/dL
CRE (24 h): 0.6 mg/dL
Ca (24 h): 10.4 mg/dL
Cl (24 h): 104.6 meq/L
DBIL (24 h): 0.006 mg/dL
GLC (24 h): 188.8 mg/dL
IP (24 h): 7.8 mg/dL
K (24 h): 5.3 meq/L
LDH (24 h): 91.6 IU/L
Na (24 h): 138.8 meq/L
PL (24 h): 149.4 mg/dL
RALB (24 h): 4 g/dL
TBIL (24 h): 0.3 mg/dL
TC (24 h): 81 mg/dL
TG (24 h): 100.2 mg/dL
TP (24 h): 5.9 g/dL
gamma-GTP (24 h): 1 IU/L

— ChEMBL document CHEMBL3885861, “Open TG-GATES”
